Measured values taken from patent EP2311457A1, “Pharmaceutical compositions for treating infections with drug resistant mycobacteria” (priority 2009, dated 2011).
Values after ≈ are worked out from the molar mass of the structure shown.

Each compound was assayed on Murine bone marrow derived macrophages (assay: not given). Conditions: not given.

Row | Compound | toxicity as measured by MTT assay
1 | CCc1ccc(C=NNc2cc(OC)ncn2)nc1 [PH22-33, 5-ethylpyridine-2-aldehyde-6'-methoxy-4'-pyrimidylhydrazone] | No toxicity was observed

These compounds were tested on Mtb H37Rv ATCC 272945 (assay: Drug susceptibility testing, radiometric MIC determination (BACTEC 460TB)). Conditions: Mycobacterium tuberculosis, ATCC272945|H37RV, read-out: minimal inhibitory concentrations.
Procedure: Drug susceptibility testing (DST) was performed with the broth-based radiometric BACTEC 460TB system (Becton Dickinson Diagnostic Systems, Sparks, MD) which is considered the laboratory "gold standard". The standard protocol for DST and determination of MICs was strictly followed as recommended by the manufacturers.

Row | Compound | MIC [µg/mL]
2 | C(=NNc1ncnc2ccccc12)c1ccc(OCc2ccccc2)cn1 [PH22-52, 5-benzyloxypyridine-2-aldehyde-4'-quinazolinylhydrazone] | 1 to 5 (≈ 2.81 to 14.1 µM)
3 | CCc1ccc(C=NNc2cc(OC)ncn2)nc1 [PH22-33, 5-ethylpyridine-2-aldehyde-6'-methoxy-4'-pyrimidylhydrazone] | < 0.125
4 | Cc1cccc(NN=Cc2ccccn2)n1 [PH22-31, pyridine-2-aldehyde-6'-methyl-2'-pyridylhydrazone] | < 1
5 | C(=NNc1nncc2ccccc12)c1ccc(OCc2ccccc2)cn1 [PH22-6, 5-benzyloxypyridine-2-aldehyde-1'-phthalazinylhydrazone] | 5 (≈ 14.1 µM)
6 | c1ccc(C(=NNc2nncc3ccccc23)c2ccccn2)cc1 [PH22-22, 2-benzoylpyridine-1'-phthalazinylhydrazone] | 5 (≈ 15.4 µM)
7 | Cc1ccc(C=NNc2ccc3ccccc3n2)nc1 [PH22-14, 5-methylpyridine-2-aldehyde-2'-quinolylhydrazone] | 0.5 (≈ 1.91 µM)
8 | Clc1ccc(NN=Cc2ccc(OCc3ccccc3)cn2)nn1 [PH22-51, 5-benzyloxypyridine-2-aldehyde-6'-chloro-3'-pyridazinylhydrazone] | 1 (≈ 2.94 µM)
9 | C(=NNc1ccccn1)c1ccc(OCc2ccccc2)cn1 [PH22-49, 5-benzyloxypyridine-2-aldehyde-2'-pyridylhydrazone] | 5 (≈ 16.4 µM)
10 | Cc1ccc(C=NNc2nncc3ccccc23)nc1 [PH22-16, 5-methyl-pyridine-2-aldehyde-1'-phthalazinylhydrazone] | < 1
11 | c1ccc(C(=NNc2ccc3ccccc3n2)c2ccccn2)cc1 [PH22-15, 2-benzoylpyridine-2'-quinolylhydrazone] | 0.25 (≈ 0.771 µM)
